Read-outs that look alike come from different tables or passages of the source.
Tested on: PopD F7 M-833 resistant clone (PfSTART1 N309K)
Test: Growth inhibition assay (72 h, LDH activity)
Type: cell-based, Plasmodium falciparum
In short: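 Synchronised ring-stage 3D7-derived clones (0.3-0.6% parasitemia, 2% haematocrit) grown 72 h in compound serial dilutions, some with 0, 0.25 or 2.5 mM glucosamine. Growth read as LDH activity after freeze-thaw (Malstat/NBT, A650), normalised to DMSO and uninfected RBC; EC50 from variable-slope log(inhibitor) fit.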

Structure (SMILES): Cc1cc(Cl)c(S(=O)(=O)N2CCCC2)cc1OCC(=O)NC1CCCCC1 [M-833]
- Normalised to DMSO (M-833 0.0390625 uM, Pop D-F7 replicate 1): 102.746
- Normalised to DMSO (M-833 0.0390625 uM, Pop D-F7 replicate 3): 104.013
- Normalised to DMSO (M-833 0.078125 uM, Pop D-F7 replicate 1): 103.501
- Normalised to DMSO (M-833 0.078125 uM, Pop D-F7 replicate 3): 102.629
- Normalised to DMSO (M-833 0.15625 uM, Pop D-F7 replicate 1): 104.635
- Normalised to DMSO (M-833 0.15625 uM, Pop D-F7 replicate 3): 103.875
- Normalised to DMSO (M-833 0.3125 uM, Pop D-F7 replicate 1): 106.297
- Normalised to DMSO (M-833 0.3125 uM, Pop D-F7 replicate 3): 100.415
- Normalised to DMSO (M-833 0.625 uM, Pop D-F7 replicate 1): 98.8413
- Normalised to DMSO (M-833 0.625 uM, Pop D-F7 replicate 3): 99.3081
- Normalised to DMSO (M-833 1.25 uM, Pop D-F7 replicate 1): 89.7985
- Normalised to DMSO (M-833 1.25 uM, Pop D-F7 replicate 3): 89.8985
- Normalised to DMSO (M-833 2.5 uM, Pop D-F7 replicate 1): 74.9622
- Normalised to DMSO (M-833 2.5 uM, Pop D-F7 replicate 3): 59.8708
- Normalised to DMSO (M-833 5 uM, Pop D-F7 replicate 1): 50.7053
- Normalised to DMSO (M-833 5 uM, Pop D-F7 replicate 3): 43.6808
- Normalised to DMSO (M-833 10 uM, Pop D-F7 replicate 1): 28.7406
- Normalised to DMSO (M-833 10 uM, Pop D-F7 replicate 3): 39.9446
- inhibition at 0.0390625 µM (Plasmodium falciparum, M-833 0.0390625 uM, Pop D-F7 replicate 1, read-out: % Inhibition): -2.75%
- inhibition at 0.0390625 µM (Plasmodium falciparum, M-833 0.0390625 uM, Pop D-F7 replicate 3, read-out: % Inhibition): -4.01%
- inhibition at 0.078125 µM (Plasmodium falciparum, M-833 0.078125 uM, Pop D-F7 replicate 1, read-out: % Inhibition): -3.5%
- inhibition at 0.078125 µM (Plasmodium falciparum, M-833 0.078125 uM, Pop D-F7 replicate 3, read-out: % Inhibition): -2.63%
- inhibition at 0.15625 µM (Plasmodium falciparum, M-833 0.15625 uM, Pop D-F7 replicate 1, read-out: % Inhibition): -4.63%
- inhibition at 0.15625 µM (Plasmodium falciparum, M-833 0.15625 uM, Pop D-F7 replicate 3, read-out: % Inhibition): -3.87%
- inhibition at 0.3125 µM (Plasmodium falciparum, M-833 0.3125 uM, Pop D-F7 replicate 1, read-out: % Inhibition): -6.3%
- inhibition at 0.3125 µM (Plasmodium falciparum, M-833 0.3125 uM, Pop D-F7 replicate 3, read-out: % Inhibition): -0.415%
- inhibition at 0.625 µM (Plasmodium falciparum, M-833 0.625 uM, Pop D-F7 replicate 1, read-out: % Inhibition): 1.16%
- inhibition at 0.625 µM (Plasmodium falciparum, M-833 0.625 uM, Pop D-F7 replicate 3, read-out: % Inhibition): 0.692%
- inhibition at 1.25 µM (Plasmodium falciparum, M-833 1.25 uM, Pop D-F7 replicate 1, read-out: % Inhibition): 10.2%
- inhibition at 1.25 µM (Plasmodium falciparum, M-833 1.25 uM, Pop D-F7 replicate 3, read-out: % Inhibition): 10.1%
- inhibition at 2.5 µM (Plasmodium falciparum, M-833 2.5 uM, Pop D-F7 replicate 1, read-out: % Inhibition): 25%
- inhibition at 2.5 µM (Plasmodium falciparum, M-833 2.5 uM, Pop D-F7 replicate 3, read-out: % Inhibition): 40.1%
- inhibition at 5 µM (Plasmodium falciparum, M-833 5 uM, Pop D-F7 replicate 1, read-out: % Inhibition): 49.3%
- inhibition at 5 µM (Plasmodium falciparum, M-833 5 uM, Pop D-F7 replicate 3, read-out: % Inhibition): 56.3%
- inhibition at 10 µM (Plasmodium falciparum, M-833 10 uM, Pop D-F7 replicate 1, read-out: % Inhibition): 71.3%
- inhibition at 10 µM (Plasmodium falciparum, M-833 10 uM, Pop D-F7 replicate 3, read-out: % Inhibition): 60.1%
- inhibition at 0.0390625 µM (Plasmodium falciparum, Pop D-F7 replicate 1, M-833 0.0390625 uM): -0.465%
- inhibition at 0.078125 µM (Plasmodium falciparum, Pop D-F7 replicate 1, M-833 0.078125 uM): -0.401%
- inhibition at 0.15625 µM (Plasmodium falciparum, Pop D-F7 replicate 1, M-833 0.15625 uM): 3.58%
- inhibition at 0.3125 µM (Plasmodium falciparum, Pop D-F7 replicate 1, M-833 0.3125 uM): 2.21%
- inhibition at 0.625 µM (Plasmodium falciparum, Pop D-F7 replicate 1, M-833 0.625 uM): 8.79%
- inhibition at 1.25 µM (Plasmodium falciparum, Pop D-F7 replicate 1, M-833 1.25 uM): 10.1%
- inhibition at 2.5 µM (Plasmodium falciparum, Pop D-F7 replicate 1, M-833 2.5 uM): 29%
- inhibition at 5 µM (Plasmodium falciparum, Pop D-F7 replicate 1, M-833 5 uM): 45.3%
- inhibition at 10 µM (Plasmodium falciparum, Pop D-F7 replicate 1, M-833 10 uM): 71.1%
- EC50 (Plasmodium falciparum, read-out: EC50 (95% confidence interval)): 2.97 µM
- Normalised to DMSO (Pop D-F7 replicate 1, M-833 0.0390625 uM): 100.465
- Normalised to DMSO (Pop D-F7 replicate 1, M-833 0.078125 uM): 100.401
- Normalised to DMSO (Pop D-F7 replicate 1, M-833 0.15625 uM): 96.4217
- Normalised to DMSO (Pop D-F7 replicate 1, M-833 0.3125 uM): 97.7856
- Normalised to DMSO (Pop D-F7 replicate 1, M-833 0.625 uM): 91.2067
- Normalised to DMSO (Pop D-F7 replicate 1, M-833 1.25 uM): 89.8748
- Normalised to DMSO (Pop D-F7 replicate 1, M-833 2.5 uM): 70.9884
- Normalised to DMSO (Pop D-F7 replicate 1, M-833 5 uM): 54.6534
- Normalised to DMSO (Pop D-F7 replicate 1, M-833 10 uM): 28.9313

From article PMC11189555, “Aryl amino acetamides prevent Plasmodium falciparum ring development via targeting the lipid-transfer protein PfSTART1” (Nature Communications, 2024)
